Values of other authors as cited in US6803060B2, “Composition to boost libido” (priority 2000, dated 2004).

Tests used:
corpus cavernosum = settings: for erection after injection into the corpus cavernosum: injected directly into the corpus cavernosum with a hypodermic needle; for duration of erection after injection: intracavernosal injection, appropriate dose
impotentia erectionis = settings: buccal, 100 I.U. three times a day for 14 days
[1] = test system: male erectile dysfunction; settings: alone or in combination with papaverine
impotent men = settings: ingestion

Row | SMILES | erection after injection into the corpus cavernosum (corpus cavernosum) | further results
1 | CCN(CC)CCOC(=O)C(Cc1cccc2ccccc12)CC1CCCO1 (mixture of isomers) [naftidrofuryl] | caused erection | 
2 | CN(C)CCCN1c2ccccc2CCc2ccccc21 [imipramine] | caused erection | 
3 | CC[C@H](C)[C@@H]1NC(=O)[C@H](Cc2ccc(O)cc2)NC(=O)[C@@H](N)CSSC[C@@H](C(=O)N2CCC[C@H]2C(=O)N[C@@H](CC(C)C)C(=O)NCC(N)=O)NC(=O)[C@H](CC(N)=O)NC(=O)[C@H](CCC(N)=O)NC1=O [oxytocin] |  | patients with improvement of impotentia erectionis (impotentia erectionis): 12 of the 16
4 | COc1ccc(Cc2nccc3cc(OC)c(OC)cc23)cc1OC [papaverine] | caused erection | duration of erection after injection (corpus cavernosum): unrelenting erection lasting for hours
5 | CC(COc1ccccc1)N(CCCl)Cc1ccccc1 (stereo not shown) [phenoxybenzamine] | caused erection | duration of erection after injection (corpus cavernosum): unrelenting erection lasting for hours
6 | Cc1ccc(N(CC2=NCCN2)c2cccc(O)c2)cc1 [phentolamine] | caused erection | 
7 | CCCCC[C@H](O)/C=C/[C@H]1[C@H](O)CC(=O)[C@@H]1CCCCCCC(=O)O [prostaglandin E1] |  | erectile response [1]: improved erectile response
8 | CC(=O)Oc1cc(C(C)C)c(OCCN(C)C)cc1C [thymoxamine] | caused erection | 
9 | COc1ccc(CCN(C)CCCC(C#N)(c2ccc(OC)c(OC)c2)C(C)C)cc1OC (stereo not shown) [verapamil] | caused erection | 
10 | COC(=O)[C@@H]1[C@H]2C[C@H]3c4[nH]c5ccccc5c4CCN3C[C@@H]2CC[C@@H]1O [yohimbine] |  | treated patients reporting complete satisfaction (impotent men): 5%; subjective improvement in erectile ability (impotent men; impotent men treated): 38%
